Assay results reported in ChEMBL document CHEMBL4007434, “Indazole-Based Covalent Inhibitors To Target Drug-Resistant Epidermal Growth Factor Receptor” (J Med Chem, 2017).
Active and inactive are the calls of the source. The calls are words filed in the database; no cut-off is given here.

Key:
[1] = target: T1, Epidermal growth factor receptor (Homo sapiens, UniProt P00533); test: Inhibition of wild-type EGFR in human A431 cells assessed as reduction in cell viability after 96 hrs by CellTiterGlo assay; assay type: ADME, cell-based
[2] = target: T2, Epidermal growth factor receptor (Homo sapiens, UniProt P00533, L858R/T790M)
[3] = target: T3, Epidermal growth factor receptor (Homo sapiens, UniProt P00533, L858R)
[4] = target: T1, Epidermal growth factor receptor; assay type: ADME
[5] = tested on: Epidermal growth factor receptor (Homo sapiens), P00533 [T790M]; test: Binding affinity to EGFR T790M mutant (unknown origin) assessed as covalent adduct formation at 100 uM after 1 hr by ESI-MS analysis
[6] = tested on: Epidermal growth factor receptor (Homo sapiens), P00533 [L858R,T790M]; test: Inhibition of EGFR L858R/T790M double mutant in human NCI-H1975 cells assessed as reduction in EGF-induced Akt phosphorylation at S473 at 0.1 to 10 uM pre-incubated for 1 hr followed by EGF stimulation for 30 mins by Western blot analysis; assay type: cell-based
[7] = Stability in mouse plasma assessed as compound remaining at 5 uM after 1 hr by LCMS analysis; assay type: ADME, cell-free; details: read-out: Stability
[8] = tested on: Epidermal growth factor receptor (Homo sapiens), P00533 [L858R,T790M,C797S]; test: Inhibition of EGFR L858R/T790M/C797S triple mutant (unknown origin) by HTRF assay
Liver [9] = test: Stability in mouse liver microsomes at 3 uM up to 50 mins by LCMS analysis; assay type: ADME, microsome
[10] = tested on: Epidermal growth factor receptor (Homo sapiens), P00533 [L858R]; test: (§1) Reversible inhibition of human N-terminal GST-tagged EGFR L858R mutant cytoplasmic domain (669 to 1210 end amino acid residues) expressed in baculovirus expression system using TK peptide substrate preincubated for 2 to 90 mins followed by 6-fold dilution
[11] = Stability in human plasma assessed as compound remaining at 5 uM after 1 hr by LCMS analysis; assay type: ADME, cell-free; details: read-out: Stability
[12] = target: T2, Epidermal growth factor receptor; test: (§2) Inhibition of EGF-induced EGFR L858R/T790M double mutant phosphorylation in human NCI-H1975 cells pre-incubated for 1 hr followed by EGF stimulation for 30 mins by Western blot analysis; assay type: cell-based
[13] = tested on: Epidermal growth factor receptor (Homo sapiens), P00533 [L858R,T790M]; test: as §2; assay type: cell-based
[14] = Ratio of EC50 for wild-type EGFR in human A431 cells to EC50 for EGFR L858R/T790M double mutant in human NCI-H1975 cells
[15] = Ratio of EC50 for wild-type EGFR in human A431 cells to EC50 for EGFR delE746_A750 mutant in human HCC827 cells
[16] = target: T1, Epidermal growth factor receptor; test: Inhibition of EGF-induced wild-type EGFR phosphorylation in human A431 cells at 10 uM pre-incubated for 1 hr followed by EGF stimulation for 30 mins by Western blot analysis; assay type: cell-based; details: 0.5 h
Liver [17] = test: Stability in human liver microsomes at 3 uM up to 50 mins by LCMS analysis; assay type: ADME, microsome
[18] = Inhibition of KRAS mutant in human A431 cells assessed as reduction in cell viability after 96 hrs by CellTiterGlo assay; assay type: cell-based; details: A-431, 96 h
[19] = target: T1, Epidermal growth factor receptor; test: Reversible inhibition of wild-type human N-terminal GST-tagged EGFR cytoplasmic domain (669 to 1210 end amino acid residues) expressed in baculovirus expression system using TK peptide substrate assessed as inactivation constant preincubated for 2 to 90 mins followed by 6-fold dilution
[20] = tested on: Epidermal growth factor receptor (Homo sapiens), P00533 [L858R]
[21] = target: T1, Epidermal growth factor receptor; test: Reversible inhibition of wild-type human N-terminal GST-tagged EGFR cytoplasmic domain (669 to 1210 end amino acid residues) expressed in baculovirus expression system using TK peptide substrate preincubated for 2 to 90 mins followed by 6-fold dilution
[22] = tested on: Epidermal growth factor receptor (Homo sapiens), P00533 [L858R,T790M]
[23] = target: T3, Epidermal growth factor receptor; test: as §1
[24] = target: T2, Epidermal growth factor receptor; test: Reversible inhibition of human N-terminal GST-tagged EGFR L858R/T790M double mutant cytoplasmic domain (669 to 1210 end amino acid residues) expressed in baculovirus expression system using TK peptide substrate preincubated for 2 to 90 mins followed by 6-fold dilution
[25] = target: T1, Epidermal growth factor receptor; test: Ratio of Kinact to Ki for reversible inhibition of wild-type human N-terminal GST-tagged EGFR cytoplasmic domain (669 to 1210 end amino acid residues) expressed in baculovirus expression system
[26] = Inhibition of KRAS mutant in human H358 cells assessed as reduction in cell viability after 96 hrs by CellTiterGlo assay; assay type: cell-based; details: NCI-H358, 96 h
[27] = target: T2, Epidermal growth factor receptor; test: Inhibition of EGFR L858R/T790M double mutant in human NCI-H1975 cells assessed as reduction in EGF-induced Akt phosphorylation at S473 pre-incubated for 1 hr followed by EGF stimulation for 30 mins by Western blot analysis; assay type: cell-based
[28] = Ratio of IC50 for wild-type human N-terminal GST-tagged EGFR cytoplasmic domain (669 to 1210 end amino acid residues) expressed in baculovirus expression system to IC50 for human N-terminal GST-tagged EGFR L858R/T790M double mutant cytoplasmic domain (669 to 1210 end amino acid residues) expressed in baculovirus expression system
[29] = target: T1, Epidermal growth factor receptor; test: Inhibition of wild-type EGFR in human A431 cells assessed as reduction in EGF-induced Akt phosphorylation at S473 pre-incubated for 1 hr followed by EGF stimulation for 30 mins by Western blot analysis; assay type: cell-based
[30] = target: T1, Epidermal growth factor receptor; test: Inhibition of EGF-induced wild-type EGFR phosphorylation in human A431 cells pre-incubated for 1 hr followed by EGF stimulation for 30 mins by Western blot analysis; assay type: cell-based

Row | Structure (SMILES) | EC50 [1] | IC50 [2] | IC50 [3] | IC50 [4] | other results
1 | C=CC(=O)Nc1cc(Nc2n[nH]c3ccc(-c4cccc5ccccc45)cc23)c(OC)cc1N(C)CCN(C)C | 2780 nM | 2.7 nM | 12 nM | 33 nM | –
2 | C=CC(=O)Nc1cc(Nc2n[nH]c3cc(-c4ccc(F)cc4)ccc23)c(OC)cc1N(C)CCN(C)C | 2170 nM | 10 nM | 8.5 nM | 26 nM | –
3 | C=CC(=O)Nc1cc(Nc2n[nH]c3ccccc23)ccc1N(C)CCN(C)C | 5970 nM | 2630 nM | > 10000 nM | > 10000 nM | –
4 | C=CC(=O)Nc1cc(Nc2n[nH]c3ccc(-c4ccc(F)cc4)cc23)c(OC)cc1N(C)CCN(C)C | 2070 nM | < 1 nM | 2 nM | 6.8 nM | Activity [5]: Active; inhibition [6]: Active; remaining at 1 h, 5 µM [7]: > 90%; inhibition [8]: inactive; Stability (Liver [9]): Stable; inhibition [10]: Active; remaining at 1 h, 5 µM [11]: > 75%; EC50 [12]: 100 to 1000 nM; inhibition [13]: Dose-dependent effect; Ratio EC50 [14]: 3 - 4; Ratio EC50 [15]: 3 - 4; inhibition (INH) [16]: Active; Stability (Liver [17]): Stable
5 | CCC(=O)Nc1cc(Nc2n[nH]c3ccccc23)c(OC)cc1N(C)CCN(C)C | > 30000 nM | > 10000 nM | > 10000 nM | > 10000 nM | –
6 | C=CC(=O)Nc1cc(Nc2n[nH]c3cc(-c4cccc(F)c4)ccc23)c(OC)cc1N(C)CCN(C)C | 2280 nM | 5 nM | 1.6 nM | 5 nM | –
7 | C=CC(=O)Nc1cc(Nc2n[nH]c3cc(-c4cncc5ccccc45)ccc23)c(OC)cc1N(C)CCN(C)C | 2820 nM | 6 nM | 1.1 nM | 2.8 nM | EC50 [18]: 659 nM
8 | C=CC(=O)Nc1cc(Nc2n[nH]c3cc(-c4cccc(C(F)(F)F)c4)ccc23)c(OC)cc1N(C)CCN(C)C | 3540 nM | 38 nM | 4.5 nM | 16 nM | –
9 | C=CC(=O)Nc1cc(Nc2n[nH]c3cc(-c4cccnc4)ccc23)c(OC)cc1N(C)CCN(C)C | 5670 nM | 15 nM | 29 nM | 97 nM | –
10 | C=CC(=O)Nc1cc(Nc2n[nH]c3cc(-c4cccc(N(C)C)c4)ccc23)c(OC)cc1N(C)CCN(C)C | 3470 nM | 22 nM | 10 nM | 48 nM | –
11 | C=CC(=O)Nc1cc(Nc2n[nH]c3cc(-c4ccc5ccccc5c4)ccc23)c(OC)cc1N(C)CCN(C)C | 1650 nM | 85 nM | 25 nM | 312 nM | –
12 | C=CC(=O)Nc1cc(Nc2n[nH]c3cc(-c4cn(C)c5ccccc45)ccc23)c(OC)cc1N(C)CCN(C)C | 2210 nM | 4.8 nM | 1.5 nM | 9.3 nM | Activity [5]: Active; kinact [19]: 0.00467 s⁻¹; Kinact [20]: 0.14 min⁻¹; Ki [21]: 236 nM; inhibition [6]: Active; Kinact [22]: 0.37 min⁻¹; remaining at 1 h, 5 µM [7]: > 90%; inhibition [8]: inactive; Stability (Liver [9]): Stable; EC50 [18]: 2100 nM; Ki [23]: 57 nM; remaining at 1 h, 5 µM [11]: > 75%; EC50 [12]: 100 to 1000 nM; inhibition [13]: Dose-dependent effect; Ki [24]: 149 nM; kinact/KI [25]: 20000 M⁻¹ s⁻¹; EC50 [26]: 2600 nM; inhibition (INH) [16]: Active; Stability (Liver [17]): Stable
13 | C=CC(=O)Nc1cc(Nc2n[nH]c3ccccc23)c(OC)cc1N(C)CCN(C)C | 10400 nM | 462 nM | 3350 nM | 9270 nM | –
14 | CCC(=O)Nc1cc(Nc2n[nH]c3ccccc23)ccc1N(C)CCN(C)C | > 30000 nM | 9730 nM | 8470 nM | > 10000 nM | –
15 | C=CC(=O)Nc1cc(Nc2n[nH]c3cc(-c4ccc(N(C)C)cc4)ccc23)c(OC)cc1N(C)CCN(C)C | 1410 nM | 72 nM | 80 nM | 387 nM | –
16 | C=CC(=O)Nc1cc(Nc2n[nH]c3ccc(-c4ccc5ccccc5c4)cc23)c(OC)cc1N(C)CCN(C)C | 1770 nM | 1.1 nM | 2.2 nM | 8.1 nM | Activity [5]: Active; kinact [19]: 0.003 s⁻¹; Kinact [20]: 0.14 min⁻¹; Ki [21]: 147 nM; Kinact [22]: 0.5 min⁻¹; remaining at 1 h, 5 µM [7]: > 90%; inhibition [8]: inactive; Stability (Liver [9]): Stable; EC50 [27]: 1000 to 10000 nM; Ki [23]: 105 nM; remaining at 1 h, 5 µM [11]: > 75%; EC50 [12]: 1000 to 10000 nM; Ratio IC50 [28]: 8; Ki [24]: 28 nM; kinact/KI [25]: 20000 M⁻¹ s⁻¹; EC50 [29]: 1000 to 10000 nM; EC50 [30]: 1000 to 10000 nM; Stability (Liver [17]): Stable
17 | C=CC(=O)Nc1cc(Nc2n[nH]c3cc(-c4ccncc4)ccc23)c(OC)cc1N(C)CCN(C)C | 3940 nM | 5 nM | 14 nM | 30 nM | Activity [5]: Active; remaining at 1 h, 5 µM [7]: > 90%; inhibition [8]: inactive; Stability (Liver [9]): Stable; inhibition [10]: Active; remaining at 1 h, 5 µM [11]: > 75%; Stability (Liver [17]): Stable
